Assays:
dog STING (dSTING) = assay: Dog differential scanning fluorimetry (DSF) assay, thermal shift of dog STING protein; format: binding; conditions: DSF (dDSF); 100 μM compound, 3 μM dog STING protein; Tm with ligand minus Tm of protein alone
Method in brief: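 Dog STING residues 149–375, His-tag removed by TEV, tested at 3 μM with 100 μM compound, 5× SYPRO Orange and 2% DMSO in 20 mM Tris, 150 mM NaCl, pH 7.5. Heated 15–95 °C in 0.5 °C steps. Tm from Boltzmann fit, duplicates averaged; ΔTm relative to protein alone.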

STING = STING (Canis lupus familiaris, UniProt A0A8I3MH52); assay: Dog whole blood (dWB) assay, IFNb secretion by ELISA; format: cell-based; conditions: canine Interferon-beta (IFNb) ELISA, 4 h incubation at 37° C.
Method in brief: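 Citrated dog whole blood (stored overnight at 4 °C) was preincubated with compound for 60 min at room temperature, top concentration 10 μM with about 1:4 steps and 0.1% DMSO. It was then incubated 4 h at 37 °C, with cGAMP added only to the high-control wells. Plasma IFNb was measured by canine ELISA (A450), normalised to the cGAMP-stimulated and unstimulated controls, and EC50 was fitted with a 4-parameter logistic model.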

Sequence of STING (A0A8I3MH52 1-374): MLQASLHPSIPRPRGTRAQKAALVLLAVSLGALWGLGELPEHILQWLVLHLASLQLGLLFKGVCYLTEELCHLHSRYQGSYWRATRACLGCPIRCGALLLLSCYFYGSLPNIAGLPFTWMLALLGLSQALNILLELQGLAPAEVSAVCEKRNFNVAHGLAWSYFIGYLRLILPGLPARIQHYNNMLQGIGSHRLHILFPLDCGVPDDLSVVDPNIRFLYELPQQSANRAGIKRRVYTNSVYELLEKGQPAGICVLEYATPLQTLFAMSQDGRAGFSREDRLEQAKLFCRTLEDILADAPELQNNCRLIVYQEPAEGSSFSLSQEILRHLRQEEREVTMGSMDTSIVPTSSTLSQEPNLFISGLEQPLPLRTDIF

| Structure (SMILES) | Delta TM (dog STING (dSTING)) [°C] | EC50 (STING) [nM] |
| --- | --- | --- |
| Cc1cc(F)cc2c(-c3cccc4nn(C)c(F)c34)nn(-c3ccc(N4CCC(C(=O)O)CC4)nc3)c12 [Example 58, 1-(5-{3″,5-difluoro-2″,7-dimethyl-1H,2″H-[3,4″-biindazol]-1-yl}pyridin-2-yl)piperidine-4-carboxylic acid] | 33.0 | 207 |
| CC(=O)N1CCN(c2ccc(-n3nc(-c4cccc5nn(C)c(F)c45)c4cc(F)cc(C)c43)cn2)CC1 [Example 59, 1-[4-(5-{3″,5-difluoro-2″,7-dimethyl-1H,2″H-[3,4″-biindazol]-1-yl}pyridin-2-yl)piperazin-1-yl]ethan-1-one] | 22.0 | 207 |
| Cc1c(F)ccc2c(-c3cccc4nn(C)c(F)c34)nn(-c3ccc(N4CCC(C(=O)O)CC4)nc3)c12 [Example 60, 1-(5-{3″,6-difluoro-2″,7-dimethyl-1H,2″H-[3,4″-biindazol]-1-yl}pyridin-2-yl)piperidine-4-carboxylic acid] | 34.5 | 195 |
| CC(=O)N1CCN(c2ccc(-n3nc(-c4cccc5nn(C)c(F)c45)c4ccc(F)c(C)c43)cn2)CC1 [Example 61, 1-[4-(5-{3″,6-difluoro-2″,7-dimethyl-1H,2″H-[3,4″-biindazol]-1-yl}pyridin-2-yl)piperazin-1-yl]ethan-1-one] | 30.8 | 245 |
| Cc1cc(F)cc2c(-c3c(F)ccc4nn(C)cc34)nn(-c3ccc(N4CCC(C(=O)O)CC4)nc3)c12 [Example 62, 1-(5-{5,5″-difluoro-2″,7-dimethyl-1H,2″H-[3,4″-biindazol]-1-yl}pyridin-2-yl)piperidine-4-carboxylic acid] | 38.0 | 295 |
| CC(=O)N1CCN(c2ccc(-n3nc(-c4c(F)ccc5nn(C)cc45)c4cc(F)cc(C)c43)cn2)CC1 [Example 63, 1-[4-(5-{5,5″-difluoro-2″,7-dimethyl-1H,2″H-[3,4″-biindazol]-1-yl}pyridin-2-yl)piperazin-1-yl]ethan-1-one] | 27.4 | 96.8 |
| Cc1c(F)ccc2c(-c3c(F)ccc4nn(C)cc34)nn(-c3ccc(N4C[C@@H]5[C@H](C4)[C@H]5C(=O)O)nc3)c12 [Example 64, (1R,5S,6R)-3-(5-{5″,6-difluoro-2″,7-dimethyl-1H,2″H-[3,4″-biindazol]-1-yl}pyridin-2-yl)-3-azabicyclo[3.1.0]hexane-6-carboxylic acid] | 36.5 | 666 |
| Cc1c(F)ccc2c(-c3c(F)ccc4nn(C)cc34)nn(-c3ccc(N4CCC(C(=O)O)CC4)nc3)c12 [Example 65, 1-(5-{5″,6-difluoro-2″,7-dimethyl-1H,2″H-[3,4″-biindazol]-1-yl}pyridin-2-yl)piperidine-4-carboxylic acid] | 36.5 | 330 |
| CC(=O)N1CCN(c2ccc(-n3nc(-c4cccc5nn(C)c(F)c45)c4ccc(F)c(C)c43)cn2)CC1 [Example 66, 1-[4-(5-{5″,6-difluoro-2″,7-dimethyl-1H,2″H-[3,4″-biindazol]-1-yl}pyridin-2-yl)piperazin-1-yl]ethan-1-one] | 25.8 | 179 |
| Cc1cc(F)cc2c(-c3c(F)cc(F)c4nn(C)cc34)nn(-c3ccc(N4CCC(C(=O)O)CC4)nc3)c12 [Example 67, 1-(5-{5,5″,7″-trifluoro-2″,7-dimethyl-1H,2″H-[3,4″-biindazol]-1-yl}pyridin-2-yl)piperidine-4-carboxylic acid] | 37.0 | 102 |
| CC(=O)N1CCN(c2ccc(-n3nc(-c4c(F)cc(F)c5nn(C)cc45)c4cc(F)cc(C)c43)cn2)CC1 [Example 68] | 28.5 | 106 |
| Cc1c(F)ccc2c(-c3c(F)cc(F)c4nn(C)cc34)nn(-c3ccc(N4CCC(C(=O)O)CC4)nc3)c12 [Example 70, 1-(5-{5″,6,7″-trifluoro-2″,7-dimethyl-1H,2″H-[3,4″-biindazol]-1-yl}pyridin-2-yl)piperidine-4-carboxylic acid] | 34.5 | 296 |
| Cc1cccc2c(-c3cccc4nn(C)c(F)c34)nn(-c3ccc(N4C[C@H]5C[C@@H]4C[C@@H]5C(=O)O)nc3)c12 [Example 73-1, (1R,4S,5S)-2-(5-{3″-fluoro-2″,7-dimethyl-1H,2″H-[3,4″-biindazol]-1-yl}pyridin-2-yl)-2-azabicyclo[2.2.1]heptane-5-carboxylic acid] | 34.5 | 87.5 |
| Cc1cccc2c(-c3cccc4nn(C)c(F)c34)nn(-c3ccc(N4C[C@@H]5C[C@H]4C[C@H]5C(=O)O)nc3)c12 [Example 73-2, (1S,4R,5R)-2-(5-{3″-fluoro-2″,7-dimethyl-1H,2″H-[3,4″-biindazol]-1-yl}pyridin-2-yl)-2-azabicyclo[2.2.1]heptane-5-carboxylic acid] | 33.3 | 232 |
| Cc1cccc2c(-c3c(F)ccc4nn(C)c(F)c34)nn(-c3ccc(N4C[C@@H]5[C@H](C4)[C@H]5C(=O)O)nc3)c12 [Example 74, (1R,5S,6R)-3-(5-{3″,5″-difluoro-2″,7-dimethyl-1H,2″H-[3,4″-biindazol]-1-yl}pyridin-2-yl)-3-azabicyclo[3.1.0]hexane-6-carboxylic acid] | 36.4 | 160 |
| Cc1cccc2c(-c3c(F)cc(F)c4nn(C)c(F)c34)nn(-c3ccc(N4C[C@@H]5[C@H](C4)[C@H]5C(=O)O)nc3)c12 [Example 76, (1R,5S,6R)-3-(5-{3″,5″,7″-trifluoro-2″,7-dimethyl-1H,2″H-[3,4″- biindazol]-1-yl}pyridin-2-yl)-3-azabicyclo[3.1.0]hexane-6-carboxylic acid] | 33.0 | 695 |
| Cc1cccc2c(-c3c(Cl)ccc4nn(C)cc34)nn(-c3ccc(N4C[C@@H]5[C@H](C4)[C@H]5C(=O)O)nc3)c12 [Example 77, (1R,5S,6S)-3-(5-{5″-chloro-2″,7-dimethyl-1H,2″H-[3,4″-biindazol]-1-yl}pyridin-2-yl)-3-azabicyclo[3.1.0]hexane-6-carboxylic acid] | 27.4 | 1090 |
| CC(=O)N1CCN(c2ccc(-n3nc(-c4c(Cl)ccc5nn(C)cc45)c4cccc(C)c43)cn2)CC1 [Example 78] | 18.4 | 817 |

Reference: patent publication US20240174641A1, “HETEROCYCLIC COMPOUNDS CAPABLE OF […]” (Boehringer Ingelheim International GmbH, priority 2022, published 2024)
